According to patent US9540391B2, “Isomannide derivatives as inhibitors of soluble epoxide hydrolase” (SANOFI, priority 2013, dated 2017):
Structures can show the parent of a compound that is named as a salt.

What follows are molecules tested against T1, recombinant sEH (Homo sapiens, UniProt P34913) (assay: biochemical screening assay for inhibition of soluble epoxide hydrolase (fluorometric, Phome substrate)).
T1 construct: made in house; host or cells: Sf9 insect cells
T1 sequence (P34913 1-555): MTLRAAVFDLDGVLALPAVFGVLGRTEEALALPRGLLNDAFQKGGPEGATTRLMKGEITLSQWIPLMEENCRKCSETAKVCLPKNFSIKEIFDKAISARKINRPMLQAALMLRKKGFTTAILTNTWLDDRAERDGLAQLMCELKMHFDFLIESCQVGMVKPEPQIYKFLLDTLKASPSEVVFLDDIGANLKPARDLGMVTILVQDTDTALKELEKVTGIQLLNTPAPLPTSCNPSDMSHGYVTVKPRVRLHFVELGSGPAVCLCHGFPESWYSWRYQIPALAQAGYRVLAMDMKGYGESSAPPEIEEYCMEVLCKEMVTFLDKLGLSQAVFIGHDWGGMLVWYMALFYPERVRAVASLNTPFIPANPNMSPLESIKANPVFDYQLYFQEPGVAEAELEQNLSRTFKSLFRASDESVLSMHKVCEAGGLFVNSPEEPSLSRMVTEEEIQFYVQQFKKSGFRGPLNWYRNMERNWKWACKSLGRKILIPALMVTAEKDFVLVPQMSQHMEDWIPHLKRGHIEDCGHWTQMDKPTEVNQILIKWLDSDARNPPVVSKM
Procedure, shortened: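 Human sEH from Sf9 cells (2 nM final) was pre-incubated 15 min at 30 °C with compound (0.0001–10 μM), then reacted 60 min at 30 °C with 5 μM Phome in 25 mM Hepes/0.01% albumin. Fluorescence of released 6-methoxy-2-naphthaldehyde was read before substrate and at end; IC50 from % inhibition.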

| Compound | IC50 [nM] |
| --- | --- |
| O=C(Nc1ccccc1)NC1COC2C(CCc3ccccc3)COC12 [Example 354, 1-[(3S,3aR,6R)-6-((S)-Phenethyl)-hexa-hydro-furo[3,2-b]furan-3-yl]-3-phenyl-urea] | 127 |
| COc1ccc([C@H](C)NC(=O)N[C@H]2CO[C@H]3[C@@H]2OC[C@@H]3Oc2ccc(F)cc2)cc1 [Example 167, 1-[(3S,3aR,6S,6aS)-6-(4-Fluoro-phenoxy)-hexahydro-furo[3,2-b]furan-3-yl]-3-[(S)-1-(4-methoxy-phenyl)-ethyl]-urea] | 66 |
| Cc1ncccc1O[C@H]1CO[C@H]2[C@@H]1OC[C@@H]2NC(=O)NC1CCCOC1 (stereo partly drawn) [Example 221, 1-[(3S,3aR,6S,6aS)-6-(2-Methyl-pyridin-3-yloxy)-hexahydro-furo[3,2-b]furan-3-yl]-3-(tetrahydro-pyran-3-yl)-urea] | 96 |
| O=C(NC1CCCCC1)N[C@H]1CO[C@H]2[C@@H]1OC[C@H]2O [Example 1, 1-cyclohexyl-3-((3S,3aR,6R,6aR)-6-hydroxy-hexahydro-furo[3,2-b]furan-3-yl)-urea] | 305 |
| Cc1cccc(NC(=O)NC2COC3C(CCc4ccccc4)COC23)c1 [Example 357, 1-[(3S,3aR,6R)-6-((S)-Phenethyl)-hexahydro-furo[3,2-b]furan-3-yl]-3-m-tolyl-urea] | 84 |
| O=C(NCCc1cccs1)N[C@H]1CO[C@H]2[C@@H]1OC[C@@H]2C#Cc1ccccc1 [Example 296, 1-((3S,3aR,6S,6aR)-6-Phenylethynyl-hexahydro-furo[3,2-b]furan-3-yl)-3-(2-thiophen-2-yl-ethyl)-urea] | 100 |
| O=C(Nc1ccc(F)cc1)NC1COC2C(CCc3ccccc3)COC12 [Example 360, 1-(4-Fluoro-phenyl)-3-[(3S,3aR,6R)-6-((S)-phenethyl)-hexahydro-furo[3,2-b]furan-3-yl]-urea] | 81 |
| Cc1ncccc1O[C@H]1CO[C@H]2[C@@H]1OC[C@@H]2NC(=O)NCC1CCC(=O)N1C (stereo partly drawn) [Example 255, 1-(1-Methyl-5-oxo-pyrrolidin-2-ylmethyl)-3-[(3S,3aR,6S,6aS)-6-(2-methyl-pyridin-3-yloxy)-hexahydro-furo[3,2-b]furan-3-yl]-urea] | 545 |
| Cc1ncccc1O[C@H]1CO[C@H]2[C@@H]1OC[C@@H]2NC(=O)N[C@@H]1CCCC[C@H]1F [Example 274, 1-((1R,2R)-2-Fluoro-cyclohexyl)-3-[(3S,3aR,6S,6aS)-6-(2-methyl-pyridin-3-yloxy)-hexahydro-furo[3,2-b]furan-3-yl]-urea] | 14 |
| O=C(NCc1ccc(F)cc1)N[C@H]1CO[C@H]2[C@@H]1OC[C@@H]2C#Cc1ccsc1 [Example 304, 1-(4-Fluoro-benzyl)-3-((3S,3aR,6S,6aR)-6-thiophen-3-ylethynyl-hexahydro-furo[3,2-b]furan-3-yl)-urea] | 279 |
| C[C@H](NC(=O)N[C@H]1CO[C@H]2[C@@H]1OC[C@@H]2Oc1ccc(F)cc1)c1ccc(F)cc1 [Example 160, 1-[(3S,3aR,6S,6aS)-6-(4-Fluoro-phenoxy)-hexahydro-furo[3,2-b]furan-3-yl]-3-[(S)-1-(4-fluoro-phenyl)-ethyl]-urea] | 31 |
| O=C(Nc1cccc(C(F)(F)F)c1)N[C@H]1CO[C@@H]2[C@@H](CCc3ccsc3)CO[C@@H]21 [Example 375, 1-[(3S,3aR,6S,6aR)-6-(2-Thiophen-3-yl-ethyl)-hexahydro-furo[3,2-b]furan-3-yl]-3-(3-trifluoromethyl-phenyl)-urea] | 17 |
| Cc1ncccc1O[C@H]1CO[C@H]2[C@@H]1OC[C@@H]2NC(=O)NC1(c2cccnc2)CC1 [Example 238, 1-[(3S,3aR,6S,6aS)-6-(2-Methyl-pyridin-3-yloxy)-hexahydro-furo[3,2-b]furan-3-yl]-3-(1-pyridin-3-yl-cyclopropyl)-urea] | 2060 |
| Cc1ncccc1O[C@H]1CO[C@H]2[C@@H]1OC[C@@H]2NC(=O)NC(C)(C)CN1CCOCC1 [Example 197, 1-(1,1-Dimethyl-2-morpholin-4-yl-ethyl)-3-[(3S,3aR,6S,6aS)-6-(2-methyl-pyridin-3-yloxy)-hexahydro-furo[3,2-b]furan-3-yl]-urea] | 1140 |
| Cc1ncccc1O[C@H]1CO[C@H]2[C@@H]1OC[C@@H]2NC(=O)NC1CCSCC1 [Example 228, 1-[(3S,3aR,6S,6aS)-6-(2-Methyl-pyridin-3-yloxy)-hexahydro-furo[3,2-b]furan-3-yl]-3-(tetrahydro-thiopyran-4-yl)-urea] | 9 |
| Cc1ncccc1O[C@H]1CO[C@H]2[C@@H]1OC[C@@H]2NC(=O)NCc1ccc(Cl)s1 [Example 208, 1-(5-Chloro-thiophen-2-ylmethyl)-3-[(3S,3aR,6S,6aS)-6-(2-methyl-pyridin-3-yloxy)-hexahydro-furo[3,2-b]furan-3-yl]-urea] | 15 |
| O=C(NC1CCCCC1)N[C@H]1CO[C@H]2[C@@H]1OC[C@@H]2Oc1cccc(C2CCNCC2)c1 [Example 108, 1-Cyclohexyl-3-[(3S,3aR,6S,6aS)-6-(3-piperidin-4-yl-phenoxy)-hexahydro-furo[3,2-b]furan-3-yl]-urea; trifluoroacetate] | 23 |
| Cc1nc(CCNC(=O)N[C@H]2CO[C@H]3[C@@H]2OC[C@@H]3Oc2cccnc2C)cs1 [Example 218, 1-[(3S,3aR,6S,6aS)-6-(2-Methyl-pyridin-3-yloxy)-hexahydro-furo[3,2-b]furan-3-yl]-3-[2-(2-methyl-thiazol-4-yl)-ethyl]-urea] | 389 |
| Cc1ncccc1O[C@H]1CO[C@H]2[C@@H]1OC[C@@H]2NC(=O)NCC1COCCO1 (stereo partly drawn) [Example 194, 1-[1,4]Dioxan-2-ylmethyl-3-[(3S,3aR,6S,6aS)-6-(2-methyl-pyridin-3-yloxy)-hexahydro-furo[3,2-b]furan-3-yl]-urea] | 1470 |
| NC[C@H]1CO[C@H]2[C@@H]1OC[C@@H]2NC(=O)NC1CCCCC1 [Example 8, 1-((3S,3aR,6S,6aR)-6-aminomethyl-hexahydro-furo[3,2-b]furan-3-yl)-3-cyclohexyl-urea; trifluoroacetate] | 14500 |

The next molecules have a lower IC50 than those just listed; values first:

| IC50 [nM] | Compound |
| --- | --- |
| 2 | O=C(NC1CCCCC1)N[C@H]1CO[C@H]2[C@@H]1OC[C@@H]2Oc1cccc(N2CCOCC2)c1 [Example 100, 1-Cyclohexyl-3-[(3S,3aR,6S,6aS)-6-(3-morpholin-4-yl-phenoxy)-hexa-hydro-furo[3,2-b]furan-3-yl]-urea] |
| 2 | Cc1ncccc1OC1COC2C(NC(=O)NCCc3ccccc3OC(F)(F)F)COC12 [Example 206, 1-[(3S,3aR,6S,6aS)-6-(2-Methyl-pyridin-3-yloxy)-hexahydro-furo[3,2-b]furan-3-yl]-3-[2-(2-trifluoro-methoxy-phenyl)-ethyl]-urea] |
| 4 | O=C(NC1CCCCC1)N[C@H]1CO[C@H]2[C@@H]1OC[C@@H]2Oc1cccnc1 [Example 96, 1-Cyclohexyl-3-[(3S,3aR,6S,6aS)-6-(pyridin-3-yloxy)-hexahydro-furo[3,2-b]furan-3-yl]-urea; trifluoroacetate] |
| 2 | Cc1cc(O[C@H]2CO[C@H]3[C@@H]2OC[C@@H]3NC(=O)NC2CCCCC2)cnc1Cl [Example 65, 1-[(3S,3aR,6S,6aS)-6-(6-Chloro-5-methyl-pyridin-3-yloxy)-hexahydro-furo[3,2-b]furan-3-yl]-3-cyclohexyl-urea] |
| 3 | CC(C)(CCO)S[C@H]1CO[C@H]2[C@@H]1OC[C@@H]2NC(=O)NC1CCCCC1 [Example 22, 1-Cyclohexyl-3-[(3S,3aR,6S,6aS)-6-(3-hydroxy-1,1-dimethyl-propylsulfanyl)-hexahydro-furo[3,2-b]furan-3-yl]-urea] |
| 2 | Cc1nc(-c2cccc(O[C@H]3CO[C@H]4[C@@H]3OC[C@@H]4NC(=O)NC3CCCCC3)c2)no1 [Example 129, 1-Cyclohexyl-3-{(3S,3aR,6S,6aS)-6-[3-(5-methyl-[1,2,4]oxadiazol-3-yl)-phenoxy]-hexahydro-furo[3,2-b]furan-3-yl}-urea] |
| 2 | Cc1ccc(O[C@H]2CO[C@H]3[C@@H]2OC[C@@H]3NC(=O)NC2CCCCC2)c(C)n1 [Example 34, 1-Cyclohexyl-3-[(3S,3aR,6S,6aS)-6-(2,6-dimethyl-pyridin-3-yloxy)-hexahydro-furo[3,2-b]furan-3-yl]-urea] |
| 7 | O=C(NC1CCCCC1)N[C@H]1CO[C@H]2[C@@H]1OC[C@@H]2Oc1ccc(N2CCC(F)(F)CC2)nc1 [Example 71, 1-Cyclohexyl-3-[(3S,3aR,6S,6aS)-6-(4,4-difluoro-3,4,5,6-tetrahydro-2H-[1,2′]bipyridinyl-5′-yloxy)-hexahydro-furo[3,2-b]furan-3-yl]-urea] |
| 2 | O=C(NC1CCCCC1)N[C@H]1CO[C@H]2[C@@H]1OC[C@@H]2Oc1cccc(-n2cnnc2)c1 [Example 30, 1-Cyclohexyl-3-[(3S,3aR,6S,6aS)-6-(3-[1,2,4]triazol-4-yl-phenoxy)-hexahydro-furo[3,2-b]furan-3-yl]-urea] |
| 3 | COC(=O)c1ccc(O[C@H]2CO[C@H]3[C@@H]2OC[C@@H]3NC(=O)NC2CCCCC2)cc1 [Example 10, 4-[(3S,3aS,6S,6aR)-6-(3-cyclohexyl-ureido)-hexahydro-furo[3,2-b]furan-3-yloxy]-benzoic acid methyl ester] |
